Converted amounts (≈) assume the structure as drawn.

The experiment concerns Clostridium difficile (Isolate ID ATCC 9689). Nature of the experiment: Bacterial Assay: Determination of Antibacterial Activity (MIC, broth microdilution or agar dilution). The experiment is classed as cell-based. The conditions noted are these: Clostridioides difficile, ATCC9689, 48 h, read-out: C. difficile MIC Activity Range. The procedure: Bacterial Assay: Determination of Antibacterial Activity Compounds of the invention were tested for antimicrobial activity by susceptibility testing in liquid or on solid media. Minimum inhibitory concentrations (MICs) for compounds against each strain were determined by the broth microdilution or agar dilution method according to the guidelines of the Clinical Laboratories and Standards Institute, formerly the National Committee for Clinical Laboratory Standards (Clinical Laboratories and Standards Institute. Methods for Dilution Antimicrobial Susceptibility Tests for Bacteria That Grow Anaerobically; Approved Standard-Seventh Edition. Document M11-A7, CLSI, Wayne, Pa., 2007, Clinical Laboratories and Standards Institute). Briefly MICs were determined by visible inspection after 48 hours of growth in the presence of compounds, cultures were grown at 37° C. in anaerobic gas packs using reinforced clostridial medium supplemented with 0.1% defribrinated horse blood. The bacterial strains tested include C. difficile (Clostridium difficile (Isolate ID ATCC 9689)) (Table 2) and two drug resistant clinical isolates (Clostridium difficile (Isolate ID BI-9) and Clostridium difficile (Isolate ID 027-01) (Table 3).
MICs were determined to be within the activity ranges “A” activity≦1.01 μg/mL; “B” activity>1.0 μg/mL-4.0 μg/mL; “C” activity>4.0 μg/mL-16 μg/mL
`NC(=O)c1c(F)ccc(OCCCCNc2ccc(OC(F)(F)F)cc2)c1F` [Compound 148, 2,6-difluoro-3-(4-{[4-(trifluoromethoxy)phenyl]amino}butoxy) benzamide]: the MIC was less than 1.01 µg/mL. Regarding `NC(=O)c1c(F)ccc(OCCCCOc2cccc(OC(F)(F)F)c2)c1F` [Compound 166, 2,6-difluoro-3-{4-[3-(trifluoromethoxy)phenoxy]butoxy} benzamide], the MIC is less than 1.01 µg/mL. On to `CC(=O)OCC(Oc1ccc(F)c(C(N)=O)c1F)c1nc(-c2ccc(C(F)(F)F)cc2)c(Br)o1` (stereo not drawn) [Compound 31, 2-{5-bromo-4-[4-(trifluoromethyl)phenyl]-1,3-oxazol-2-yl}-2-(3-carbamoyl-2,4-difluorophenoxy)ethyl acetate], for which the MIC was less than 1.01 µg/mL. The result for `NC(=O)c1c(F)ccc(OC(CO)c2nc(-c3ccc(Cl)s3)c(Br)o2)c1F` (racemic) [Compound 101, 3-{1-[5-bromo-4-(5-chlorothiophen-2-yl)-1,3-oxazol-2-yl]-2-hydroxyethoxy}-2,6-difluorobenzamide] reads 1 to 4 µg/mL (≈ 2.08 to 8.34 µM). As to `NC(=O)c1c(F)ccc(OC(COC(=O)NCc2cccnc2)c2nc(-c3ccc(C(F)(F)F)cc3)c(Br)o2)c1F` (stereo not drawn) [Compound 62, 2-{5-bromo-4-[4-(trifluoromethyl)phenyl]-1,3-oxazol-2-yl}-2-(3-carbamoyl-2,4-difluorophenoxy)ethyl (pyridin-3-ylmethyl)carbamate], the MIC was in the range of 1 to 4 µg/mL (≈ 1.56 to 6.24 µM).

`CC(=O)OCCCC(Oc1ccc(F)c(C(N)=O)c1F)c1nc(-c2ccc(C(F)(F)F)cc2)c(Br)o1` (stereo not drawn) [Compound 45, 4-{5-bromo-4-[4-(trifluoromethyl)phenyl]-1,3-oxazol-2-yl}-4-(3-carbamoyl-2,4-difluorophenoxy)butyl acetate]: the minimum inhibitory concentration (MIC) fell in the range of 1 to 4 µg/mL. In the case of `NC(=O)c1c(F)ccc(OCCCc2nc3cc(Cl)ccc3s2)c1F` [Compound 109, 3-[3-(5-chloro-1,3-benzothiazol-2-yl)propoxy]-2,6-difluorobenzamide], the MIC lay within 1 to 4 µg/mL (≈ 2.61 to 10.4 µM). The result for `NC(=O)c1c(F)ccc(OC(COC(=O)CCCN2C(=O)c3ccccc3C2=O)c2nc(-c3ccc(C(F)(F)F)cc3)c(Br)o2)c1F` (stereo not drawn) [Compound 42, 2-{5-bromo-4-[4-(trifluoromethyl)phenyl]-1,3-oxazol-2-yl}-2-(3-carbamoyl-2,4-difluorophenoxy)ethyl 4-(1,3-dioxo-1,3-dihydro-2H-isoindo1-2-yl)butanoate] reads less than 1.01 µg/mL; that for `NC(=O)c1c(F)ccc(OCCCCOc2ccc(OC(F)(F)F)c(Br)c2)c1F` [Compound 163, 3-{4-[3-bromo-4-(trifluoromethoxy)phenoxy]butoxy}-2,6-difluorobenzamide], less than 1.01 µg/mL; that for `NC(=O)c1c(F)ccc(OC(CO)c2nc(-c3ccc(Br)s3)c(Br)o2)c1F` (stereo not drawn) [Compound 100, 3-{1-[5-bromo-4-(5-bromothiophen-2-yl)-1,3-oxazol-2-yl]-2-hydroxyethoxy}-2,6-difluorobenzamide], 1 to 4 µg/mL (≈ 1.91 to 7.63 µM). The result for `NC(=O)c1c(F)ccc(OCCCCOc2cccc(F)c2)c1F` [Compound 167, 2,6-difluoro-3-[4-(3-fluorophenoxy)butoxy] benzamide] reads 1 to 4 µg/mL (≈ 2.95 to 11.8 µM); that for `COc1ccc(CNC(=O)OCC(Oc2ccc(F)c(C(N)=O)c2F)c2nc(-c3ccc(C(F)(F)F)cc3)c(Br)o2)cn1` (stereo not drawn) [Compound 83, 2-{5-bromo-4-[4-(trifluoromethyl)phenyl]-1,3-oxazol-2-yl}-2-(3-carbamoyl-2,4-difluorophenoxy)ethyl [(6-methoxypyridin-3-yl)methyl]carbamate], less than 1.01 µg/mL; that for `CCCCCCCCCOc1ccc(Cl)c(C(N)=O)c1F` [Compound 2, 6-chloro-2-fluoro-3-(nonyloxy)benzamide], less than 1.01 µg/mL. For `CC(=O)OCC(Oc1ccc(F)c(C(N)=O)c1F)c1nc(-c2ccc(C(F)(F)F)cc2)c(Cl)o1` (stereo not drawn) [Compound 34, 2-(3-carbamoyl-2,4-difluorophenoxy)-2-{5-chloro-4-[4-(trifluoromethyl)phenyl]-1,3-oxazol-2-yl}ethyl acetate], the MIC is less than 1.01 µg/mL.

Consider `NC(=O)c1c(F)ccc(O[C@H](CO)c2nc(-c3ccc(C(F)(F)F)cc3)c(Br)o2)c1F` (racemic) [Compound 32, 3-(1-{5-bromo-4-[4-(trifluoromethyl)phenyl]-1,3-oxazol-2-yl}-2-hydroxyethoxy)-2,6-difluorobenzamide], for which the MIC was less than 1.01 µg/mL. The result for `NC(=O)c1c(F)ccc(OCc2nc(-c3ccc(S(F)(F)(F)(F)F)cc3)no2)c1F` [Compound 120, 2,6-difluoro-3-({3-[4-(pentafluoro-lambda~6~- sulfanyl)phenyl]-1,2,4-oxadiazol-5-yl}methoxy)benzamide] reads 4 to 16 µg/mL (≈ 8.75 to 35 µM). The value for `Cn1nccc1CNC(=O)OCC(Oc1ccc(F)c(C(N)=O)c1F)c1nc(-c2ccc(C(F)(F)F)cc2)c(Br)o1` (stereo not drawn) [Compound 73, 2-{5-bromo-4-[4-(trifluoromethyl)phenyl]-1,3-oxazol-2-yl}-2-(3-carbamoyl-2,4-difluorophenoxy)ethyl [(1-methyl-1H-pyrazo1-5-yl)methyl]carbamate] was less than 1.01 µg/mL. The result for `NC(=O)c1c(F)ccc(OCCCc2nc(-c3ccc(S(F)(F)(F)(F)F)cc3)cs2)c1F` [Compound 116, 2,6-difluoro-3-(3-{4-[4-(pentafluoro-lambda~6~- sulfanyl)phenyl]-1,3-thiazol-2-yl}propoxy)benzamide] reads 1 to 4 µg/mL (≈ 2 to 7.99 µM). As for `CSc1oc(C(CO)Oc2ccc(F)c(C(N)=O)c2F)nc1-c1ccc(C(F)(F)F)cc1` (stereo not drawn) [Compound 69, 2,6-difluoro-3-(2-hydroxy-1-{5-(methylthio)-4-[4-(trifluoromethyl)phenyl]-1,3-oxazol-2-yl}ethoxy)benzamide], the MIC was less than 1.01 µg/mL. Turning to `NC(=O)c1c(F)ccc(OCCCCOc2ccccc2Cl)c1F` [Compound 139, 3-[4-(2-chlorophenoxy)butoxy]-2,6-difluorobenzamide], the MIC is 4 to 16 µg/mL (≈ 11.2 to 45 µM).

`COCCNC(=O)OCC(Oc1ccc(F)c(C(N)=O)c1F)c1nc(-c2ccc(C(F)(F)F)cc2)c(Br)o1` (stereo not drawn) [Compound 60, 2-{5-bromo-4-[4-(trifluoromethyl)phenyl]-1,3-oxazol-2-yl}-2-(3-carbamoyl-2,4-difluorophenoxy)ethyl (2-methoxyethyl)carbamate]: the minimum inhibitory concentration (MIC) is less than 1.01 µg/mL. As for `NC(=O)c1c(F)ccc(OCCCCOc2ccc(Cl)cn2)c1F` [Compound 143, 3-{4-[(5-chloropyridin-2-yl)oxy]butoxy}-2,6-difluorobenzamide], the MIC is less than 1.01 µg/mL. The value for `Cc1ccc(CNC(=O)OCC(Oc2ccc(F)c(C(N)=O)c2F)c2nc(-c3ccc(C(F)(F)F)cc3)c(Br)o2)cn1` (stereo not drawn) [Compound 89, 2-{5-bromo-4-[4-(trifluoromethyl)phenyl]-1,3-oxazol-2-yl}-2-(3-carbamoyl-2,4-difluorophenoxy)ethyl [(6-methylpyridin-3-yl)methyl]carbamate] was less than 1.01 µg/mL. The value for `NC(=O)CN(CCCCOc1ccc(OC(F)(F)F)cc1)c1ccc(F)c(C(N)=O)c1F` [Compound 183, 3-[(2-amino-2-oxoethyl){4-[4-(trifluoromethoxy)phenoxy]butyl}amino]-2,6-difluorobenzamide] was 4 to 16 µg/mL (≈ 8.67 to 34.7 µM).

Usually MIC stands for the lowest concentration that inhibits growth of the organism.

For the origin of these results see patent publication US20170305943A1, “COMPOUNDS FOR THE TREATMENT OF BACTERIAL INFECTIONS” (priority 2014, published 2017).
